Structures can show the parent of a compound that is named as a salt.
Key:
[1] = cited from earlier work
[2] = test system: angina pectoris patients; test: efficacy and safety of landiolol hydrochloride in coronary angiography using MSCT; format: in vivo, human
Excerpt: Evaluation of efficacy and safety of landiolol hydrochloride to the coronary angiography ability using MSCT:
In the imaging of MSCT, LightSpeed Ultra 16 (16-slices MSCT, manufactured by GE medical systems) was used.
As a Workstation, Advantage Workstation AW 4.2 (manufactured by GE Medical Systems) was used.
As an imaging analysis soft, CardIQ Analysis II manufactured by GE Medical Systems was used.
As contrast media, iomeprol 350 mgI/ml (brand name: Iomeron 350, manufactured by Eisai Co., Ltd., was used.
To four angina pectoris patients, was intravenously administered landiolol hydrochloride swiftly over a period of 1 minute (0.063 mg/kg/minute), followed by a sustained intravenous administration over a period of 10 minutes (0.02 mg/kg/minute).
The contrast media were administered 10 minutes after confirming that the heart rate was slowed down. The imaging timing was determined by a test injection method using contrast media. As a result of swift administration of iomeprol (10 ml) and saline (20 ml) sequentially, it took approximately average of 16 seconds for iomeprol to reach heart. Afterwards, iomeprol (70 ml) and saline (20 ml) were swiftly administered sequentially and in time with the timing when iomeprol reached heart, MSCT imaging was started.
Three-dimensional overall figures of coronary artery were grasped with (A), and then followed by evaluation of the lesion site with (B) and (C), optionally followed by addition of an orthogonal cross-section imaging of a coronary artery for further confirmation.
To the above four angina pectosis patients, landiolol hydrochloride was administered. […] The inhibition rate (%) was calculated by {(post-value/(pre-value)×100−100}.

COC(=O)CCc1ccc(OCC(O)CNC(C)C)cc1 (centres unmarked) [esmolol hydrochloride, Methyl 3-[4-[2-hydroxy-3-(isopropylamino)propoxy]phenyl]propionic acid hydrochloride]
half life in blood [1]: approximately 9 minutes

CC1(C)OC[C@@H](COC(=O)CCc2ccc(OC[C@@H](O)CNCCNC(=O)N3CCOCC3)cc2)O1 [landiolol hydrochloride, (−)-[(S)-2,2-dimethyl-1,3-dioxolan-4-yl]methyl-3-[4-[(S)-2-hydroxy-3-(2-morpholinocarbonylamino)ethylamino]propoxy]phenylpropionic acid hydrochloride]
image quality of coronary angiography by MSCT ([2]; after administration of landiolol hydrochloride, iomeprol contrast medium, 16-slices MSCT): extremely sharp
lowering of the blood pressure (safety) ([2]; angina pectoris patients, after administration): no excessive lowering of the blood pressure was found
Heart rate after administration ([2]; four angina pectoris patients (n = 4), i.v. 0.063 mg/kg/minute for 1 minute, then 0.02 mg/kg/minute for 10 minutes, before administration 61.0): 54.8 min⁻¹
Systolic blood pressure after administration ([2]; four angina pectoris patients (n = 4), i.v. 0.063 mg/kg/minute for 1 minute, then 0.02 mg/kg/minute for 10 minutes, before administration 173.3): 161.8 mmHg
